# ChEMBL document CHEMBL1212738, “Phenotypic and genotypic characterization of Enterobacteriaceae with decreased susceptibility to carbapenems: results from large hospital-based surveillance studies in China” (2010)
# Key:
# Klebsiella pneumoniae [1] = test: Antimicrobial activity against carbapenem-resistant Klebsiella pneumoniae GZ84 deficient in SHV-11, aac(6')-Ib-cr, ompK35 by CLSI method; format: functional
# Escherichia coli [2] = test: Antimicrobial activity against carbapenem-resistant Escherichia coli HX74 deficient in TEM-1, CTX-M-14, CTX-M-3, aac(6')-Ibcr, ompC/F by CLSI method; format: functional
# Citrobacter freundii [3] = test: Antimicrobial activity against Citrobacter freundii SZ62 expressing IMP-4, TEM-1, CMY-2, qnrS1, aac(6')-Ib-cr by CLSI method; format: functional
# Klebsiella aerogenes [4] = test: Antimicrobial activity against carbapenem-resistant Enterobacter aerogenes PU41 deficient in CTX-M-14, DHA-1, qnrS1, ompC DEc, ompF by CLSI method; format: functional
# Klebsiella aerogenes [5] = test: Antimicrobial activity against Enterobacter aerogenes PU41T expressing CTX-M-14, DHA-1, qnrS1 by CLSI method; format: functional
# Escherichia coli [6] = test: Antimicrobial activity against Escherichia coli ZJ87T expressing KPC-2 by CLSI method; format: functional
# Escherichia coli [7] = test: Antimicrobial activity against Escherichia coli C600 by CLSI method; format: functional
# Escherichia coli [8] = test: Antimicrobial activity against carbapenem-resistant Escherichia coli PU96 deficient in TEM-1, CTX-M-14, CMY-2, ompC/F by CLSI method; format: functional
# Citrobacter freundii [9] = test: Antimicrobial activity against Citrobacter freundii SZ63 expressing IMP-4, qnrS1by CLSI method; format: functional
# Citrobacter freundii [10] = test: Antimicrobial activity against Citrobacter freundii SZ63T expressing IMP-4, qnrS1by CLSI method; format: functional
# Klebsiella pneumoniae [11] = test: Antimicrobial activity against carbapenem-resistant Klebsiella pneumoniae GZ66 deficient in SHV-11, DHA-1, ompK35/36 by CLSI method; format: functional
# Klebsiella pneumoniae [12] = test: Antimicrobial activity against carbapenem-resistant Klebsiella pneumoniae PU104 deficient in TEM-1, SHV-11, CTX-M-15, qnrS1, ompK35/36 by CLSI method; format: functional
# Klebsiella pneumoniae [13] = test: Antimicrobial activity against Klebsiella pneumoniae ZJ99 expressing KPC-2, CTX-M-3, qnrS1, ompK35 DE by CLSI method; format: functional
# Klebsiella pneumoniae [14] = test: Antimicrobial activity against carbapenem-resistant Klebsiella pneumoniae ZJ70 deficient in KPC-2, SHV-11, CTX-M-14, ompK35/36 by CLSI method; format: functional
# Escherichia coli [15] = test: Antimicrobial activity against carbapenem-resistant Escherichia coli PU43 deficient in TEM-1, CTX-M-14, aac(6')-Ib, ompC/F by CLSI method; format: functional
# Klebsiella pneumoniae [16] = test: Antimicrobial activity against Klebsiella pneumoniae ZJ99T expressing KPC-2, CTX-M-3, qnrS1 by CLSI method; format: functional
# Klebsiella pneumoniae [17] = test: Antimicrobial activity against Klebsiella pneumoniae CY1T expressing SHV-11, DHA-1 by CLSI method; format: functional
# Klebsiella pneumoniae [18] = test: Antimicrobial activity against Klebsiella pneumoniae ZJ71T expressing KPC-2 by CLSI method; format: functional
# Enterobacter cloacae [19] = test: Antimicrobial activity against carbapenem-resistant Enterobacter cloacae SZ92 deficient in IMP-4, TEM-1, CTX-M-14, DHA-1, qnrB10/B4-like, aac(6')-Ib, ompC by CLSI method; format: functional
# Enterobacter cloacae [20] = test: Antimicrobial activity against carbapenem-resistant Enterobacter cloacae GX24 deficient in TEM-1, DHA-1, aac(6')-Ib, ompC by CLSI method; format: functional
# Klebsiella pneumoniae [21] = test: Antimicrobial activity against carbapenem-resistant Klebsiella pneumoniae PU8 deficient in SHV-11, DHA-1, aac(6')-Ib-cr, ompK35/36 by CLSI method; format: functional
# Klebsiella aerogenes [22] = test: Antimicrobial activity against carbapenem-resistant Enterobacter aerogenes WH85 deficient in TEM-1, CTX-M-3, ompC/F by CLSI method; format: functional
# Klebsiella pneumoniae [23] = test: Antimicrobial activity against Klebsiella pneumoniae ZJ68T expressing CTX-M-15 by CLSI method; format: functional
# Klebsiella pneumoniae [24] = test: Antimicrobial activity against Klebsiella pneumoniae ZJ70T expressing KPC-2 by CLSI method; format: functional
# Enterobacter cloacae [25] = test: Antimicrobial activity against carbapenem-resistant Enterobacter cloacae NJ88 deficient in CTX-M-14, ompC/F by CLSI method; format: functional
# Escherichia coli [26] = test: Antimicrobial activity against Escherichia coli PU60T expressing CMY-2 by CLSI method; format: functional
# Klebsiella pneumoniae [27] = test: Antimicrobial activity against carbapenem-resistant Klebsiella pneumoniae FZ47 deficient in IMP-8, TEM-1, SHV-11, CTX-M-14, qnrB2, aac(6')-Ib, ompK35/36 by CLSI method; format: functional
# Escherichia coli [28] = test: Antimicrobial activity against Escherichia coli C600 transconjugant GZ66T expressing SHV-11, DHA-1 by CLSI method
# Klebsiella pneumoniae [29] = test: Antimicrobial activity against carbapenem-resistant Klebsiella pneumoniae CY1 deficient in SHV-11, DHA-1, ompK35/36 by CLSI method; format: functional
# Klebsiella pneumoniae [30] = test: Antimicrobial activity against Klebsiella pneumoniae WH76 expressing IMP-4, TEM-1, SHV-14, CTX-M-3, qnrS1 by CLSI method; format: functional
# Klebsiella pneumoniae [31] = test: Antimicrobial activity against carbapenem-resistant Klebsiella pneumoniae PU4 deficient in SHV-1, DHA-1, ompK35/36 by CLSI method; format: functional
# Klebsiella pneumoniae [32] = test: Antimicrobial activity against Klebsiella pneumoniae WH77 expressing IMP-4, TEM-1, SHV-14, CTX-M-3, qnrS1 by CLSI method; format: functional
# Escherichia coli [33] = test: Antimicrobial activity against Escherichia coli C600 transconjugant WH76T expressing IMP-4, TEM-1, CTX-M-3, qnrS1 by CLSI method
# Klebsiella pneumoniae [34] = test: Antimicrobial activity against carbapenem-resistant Klebsiella pneumoniae XJ81 deficient in TEM-1, SHV-12, DHA-1, aac(6')-Ib, ompK35/36 by CLSI method; format: functional
# Klebsiella pneumoniae [35] = test: Antimicrobial activity against carbapenem-resistant Klebsiella pneumoniae SX67 deficient in SHV-2, CTX-M-14, DHA-1, qnrB6/S1, aac(6')-Ib-cr, ompK35/36 by CLSI method; format: functional
# Klebsiella pneumoniae [36] = test: Antimicrobial activity against carbapenem-resistant Klebsiella pneumoniae FZ49 deficient in IMP-8, TEM-1, SHV-11, CTX-M-14, qnrB2, aac(6')-Ib, ompK35/36 by CLSI method; format: functional
# Klebsiella pneumoniae [37] = test: Antimicrobial activity against carbapenem-resistant Klebsiella pneumoniae SZ61 deficient in TEM-1, SHV-1a, CMY-2, ompK35/36 by CLSI method; format: functional
# Klebsiella pneumoniae [38] = test: Antimicrobial activity against carbapenem-resistant Klebsiella pneumoniae ZJ68 deficient in CTX-M-15, ompK35/36 by CLSI method
# Klebsiella pneumoniae [39] = test: Antimicrobial activity against carbapenem-resistant Klebsiella pneumoniae ZJ69 deficient in SHV-28, ompK35/36 by CLSI method; format: functional
# Enterobacter cloacae [40] = test: Antimicrobial activity against carbapenem-resistant Enterobacter cloacae WH103 deficient in IMP-4, TEM-1, CTX-M-3, qnrS1, ompC by CLSI method; format: functional
# Klebsiella pneumoniae [41] = test: Antimicrobial activity against Klebsiella pneumoniae GZ64 expressing IMP-4, ompK35/36 by CLSI method; format: functional
molecule,measurement,setting,value
C[C@@H](O)[C@H]1C(=O)N2C(C(=O)O)=C(S[C@@H]3CN[C@H](C(=O)Nc4cccc(C(=O)O)c4)C3)[C@H](C)[C@H]12,MIC,Klebsiella pneumoniae [1],8 µg/mL
same,MIC,Escherichia coli [2],16 µg/mL
same,MIC,Citrobacter freundii [3],4 µg/mL
same,MIC,Klebsiella aerogenes [4],64 µg/mL
same,MIC,Klebsiella aerogenes [5],0.032 µg/mL
same,MIC,Escherichia coli [6],16 µg/mL
same,MIC,Escherichia coli [7],0.008 µg/mL
same,MIC,Escherichia coli [8],128 µg/mL
same,MIC,Citrobacter freundii [9],4 µg/mL
same,MIC,Citrobacter freundii [10],4 µg/mL
same,MIC,Klebsiella pneumoniae [11],64 µg/mL
same,MIC,Klebsiella pneumoniae [12],64 µg/mL
same,MIC,Klebsiella pneumoniae [13],8 µg/mL
same,MIC,Klebsiella pneumoniae [14],> 256 µg/mL
same,MIC,Escherichia coli [15],32 µg/mL
same,MIC,Klebsiella pneumoniae [16],8 µg/mL
same,MIC,Klebsiella pneumoniae [17],0.008 µg/mL
same,MIC,Klebsiella pneumoniae [18],4 µg/mL
same,MIC,Enterobacter cloacae [19],32 µg/mL
same,MIC,Enterobacter cloacae [20],16 µg/mL
same,MIC,Klebsiella pneumoniae [21],32 µg/mL
same,MIC,Klebsiella aerogenes [22],16 µg/mL
same,MIC,Klebsiella pneumoniae [23],0.064 µg/mL
same,MIC,Klebsiella pneumoniae [24],16 µg/mL
same,MIC,Enterobacter cloacae [25],128 µg/mL
same,MIC,Escherichia coli [26],0.064 µg/mL
same,MIC,Klebsiella pneumoniae [27],8 µg/mL
same,MIC,Escherichia coli [28],0.008 µg/mL
same,MIC,Klebsiella pneumoniae [29],32 µg/mL
same,MIC,Klebsiella pneumoniae [30],2 µg/mL
same,MIC,Klebsiella pneumoniae [31],32 µg/mL
same,MIC,Klebsiella pneumoniae [32],4 µg/mL
same,MIC,Escherichia coli [33],2 µg/mL
same,MIC,Klebsiella pneumoniae [34],64 µg/mL
same,MIC,Klebsiella pneumoniae [35],32 µg/mL
same,MIC,Klebsiella pneumoniae [36],4 µg/mL
same,MIC,Klebsiella pneumoniae [37],64 µg/mL
same,MIC,Klebsiella pneumoniae [38],64 µg/mL
same,MIC,Klebsiella pneumoniae [39],32 µg/mL
same,MIC,Enterobacter cloacae [40],32 µg/mL
same,MIC,Klebsiella pneumoniae [41],32 µg/mL
POLYMYXIN B,MIC,Klebsiella pneumoniae [1],0.5 µg/mL
same,MIC,Escherichia coli [2],0.5 µg/mL
same,MIC,Citrobacter freundii [3],0.5 µg/mL
same,MIC,Klebsiella aerogenes [4],0.5 µg/mL
same,MIC,Klebsiella aerogenes [5],0.25 µg/mL
same,MIC,Escherichia coli [6],0.25 µg/mL
same,MIC,Escherichia coli [7],0.5 µg/mL
same,MIC,Escherichia coli [8],0.5 µg/mL
same,MIC,Citrobacter freundii [9],0.5 µg/mL
same,MIC,Citrobacter freundii [10],0.5 µg/mL
same,MIC,Klebsiella pneumoniae [11],0.5 µg/mL
same,MIC,Klebsiella pneumoniae [12],0.5 µg/mL
same,MIC,Klebsiella pneumoniae [13],1 µg/mL
same,MIC,Klebsiella pneumoniae [14],0.5 µg/mL
same,MIC,Escherichia coli [15],0.5 µg/mL
same,MIC,Klebsiella pneumoniae [16],0.25 µg/mL
same,MIC,Klebsiella pneumoniae [17],0.25 µg/mL
same,MIC,Klebsiella pneumoniae [18],0.5 µg/mL
same,MIC,Enterobacter cloacae [19],0.5 µg/mL
same,MIC,Enterobacter cloacae [20],2 µg/mL
same,MIC,Klebsiella pneumoniae [21],1 µg/mL
same,MIC,Klebsiella aerogenes [22],0.5 µg/mL
same,MIC,Klebsiella pneumoniae [23],0.5 µg/mL
same,MIC,Klebsiella pneumoniae [24],0.25 µg/mL
same,MIC,Enterobacter cloacae [25],0.5 µg/mL
same,MIC,Escherichia coli [26],0.25 µg/mL
same,MIC,Klebsiella pneumoniae [27],1 µg/mL
same,MIC,Klebsiella pneumoniae [29],1 µg/mL
same,MIC,Klebsiella pneumoniae [30],1 µg/mL
same,MIC,Klebsiella pneumoniae [31],0.5 µg/mL
same,MIC,Klebsiella pneumoniae [32],1 µg/mL
same,MIC,Klebsiella pneumoniae [34],0.5 µg/mL
same,MIC,Klebsiella pneumoniae [35],1 µg/mL
same,MIC,Klebsiella pneumoniae [36],1 µg/mL
same,MIC,Klebsiella pneumoniae [37],0.5 µg/mL
same,MIC,Klebsiella pneumoniae [39],1 µg/mL
same,MIC,Enterobacter cloacae [40],0.5 µg/mL
same,MIC,Klebsiella pneumoniae [41],0.5 µg/mL
